Assay results as given in publication PMC9090415, “Discovery of small molecule inhibitors of Plasmodium falciparum apicoplast DNA polymerase” (Journal of Enzyme Inhibition and Medicinal Chemistry, 2022).

Biological target: T1, bacteriophage T4 DNA polymerase (Enterobacteria phage T4, UniProt P04415)
T1 construct: made in house
T1 sequence (P04415 1-898): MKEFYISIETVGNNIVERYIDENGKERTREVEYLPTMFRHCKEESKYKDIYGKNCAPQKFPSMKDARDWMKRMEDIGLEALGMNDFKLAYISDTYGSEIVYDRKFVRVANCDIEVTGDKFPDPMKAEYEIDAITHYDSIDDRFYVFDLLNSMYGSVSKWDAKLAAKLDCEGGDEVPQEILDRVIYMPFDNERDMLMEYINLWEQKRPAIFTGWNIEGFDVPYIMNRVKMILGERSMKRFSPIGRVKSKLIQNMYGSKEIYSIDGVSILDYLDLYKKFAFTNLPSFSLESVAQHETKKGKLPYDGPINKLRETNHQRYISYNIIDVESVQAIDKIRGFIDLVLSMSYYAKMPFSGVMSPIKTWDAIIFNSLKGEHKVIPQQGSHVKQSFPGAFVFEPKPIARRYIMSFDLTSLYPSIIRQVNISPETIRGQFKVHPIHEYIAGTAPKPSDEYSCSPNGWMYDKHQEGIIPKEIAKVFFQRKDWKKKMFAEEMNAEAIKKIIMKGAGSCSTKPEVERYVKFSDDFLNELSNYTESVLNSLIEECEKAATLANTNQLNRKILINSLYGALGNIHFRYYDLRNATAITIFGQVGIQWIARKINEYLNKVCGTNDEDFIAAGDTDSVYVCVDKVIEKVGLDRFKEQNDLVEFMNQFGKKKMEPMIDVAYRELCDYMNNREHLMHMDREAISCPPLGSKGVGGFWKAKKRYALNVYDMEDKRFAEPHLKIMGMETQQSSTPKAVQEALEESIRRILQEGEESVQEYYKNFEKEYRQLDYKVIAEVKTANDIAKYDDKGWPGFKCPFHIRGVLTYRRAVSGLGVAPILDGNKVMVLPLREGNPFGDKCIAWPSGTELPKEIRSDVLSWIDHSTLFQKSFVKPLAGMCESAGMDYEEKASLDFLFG
Assay: Counter-screen against bacteriophage T4 DNA polymerase
Assay type: biochemical
Conditions: for % inhibition T4 10' 2.5 / % inhibition T4 10' 5 / % inhibition T4 10' 10 / % inhibition T4 10' 20 / % inhibition T4 10' 40 / % inhibition T4 10' 80: read at 10'; for % inhibition T4 10' 20 / % inhibition T4 70' 20 / % inhibition T4 130' 20 / % inhibition T4 40' 20 / % inhibition T4 90' 20 / % inhibition T4 180' 20: concentration 20; for % inhibition T4 70' 2.5 / % inhibition T4 70' 5 / % inhibition T4 70' 10 / % inhibition T4 70' 20 / % inhibition T4 70' 40 / % inhibition T4 70' 80: read at 70'; for % inhibition T4 130' 2.5 / % inhibition T4 130' 5 / % inhibition T4 130' 10 / % inhibition T4 130' 20 / % inhibition T4 130' 40 / % inhibition T4 130' 80: read at 130'; for % inhibition T4 40' 2.5 / % inhibition T4 40' 5 / % inhibition T4 40' 10 / % inhibition T4 40' 20 / % inhibition T4 40' 40 / % inhibition T4 40' 80: read at 40'; for % inhibition T4 90' 2.5 / % inhibition T4 90' 5 / % inhibition T4 90' 10 / % inhibition T4 90' 20 / % inhibition T4 90' 40 / % inhibition T4 90' 80: read at 90'; for % inhibition T4 180' 2.5 / % inhibition T4 180' 5 / % inhibition T4 180' 10 / % inhibition T4 180' 20 / % inhibition T4 180' 40 / % inhibition T4 180' 80: read at 180'
Description: Codon-optimized, exonuclease-deficient Pf-apPOL was overexpressed in E. coli BL21 (DE3) and purified as described. The protein was dialysed against two, 1-liter changes of 20 mM Tris-HCl (pH 8.0), 400 mM NaCl, and 20% glycerol. Plasmodium bergei and Babesia bovis apPOLs (Pb-apPOL and Bb-apPOL, respectively) were codon-optimized, expressed, and purified as for Pf-apPOL[15]. Bacteriophage T4 DNA polymerase was purified as described. The DNA oligonucleotides used to make the high-throughput substrate were obtained from Integrated DNA Technologies. Deoxynucleotides were purchased from Strategene. All other materials came from Fisher Scientific.
Each compound was tested in a dose-response format to determine IC50 values. […] T4 DNA polymerase can be produced in large quantities, and is in the same family (B-family) as the replicative human DNA polymerases (α, δ, and ε)[20].

O=C1C(=Cc2ccccc2O)Oc2ccc(O)cc21 [KU0196475]
% inhibition T4 10' (DRC-2, 10', concentration 80): 34%
% inhibition T4 40' (DRC-2, concentration 2.5): 10%
% inhibition T4 40' (DRC-2, concentration 5): 10%
% inhibition T4 40' (DRC-2, concentration 10): 21%
% inhibition T4 90' (DRC-2, concentration 10): 21%
% inhibition T4 90' (DRC-2, concentration 40): 34%

COc1ccc(/C=C/c2cc(C(=O)O)c3ccccc3n2)cc1 [Molecule 5, COc1ccc(cc1)/C=C/c1nc2ccccc2c(c1)C(=O)O]
% inhibition T4 10' 2.5 (DRC-1, concentration 2.5): 1.081%
% inhibition T4 10' 5 (DRC-1, concentration 5): 5.185%
% inhibition T4 10' 10 (DRC-1, concentration 10): 0.5818%
% inhibition T4 10' 20 (DRC-1): -3.901%
% inhibition T4 10' 40 (DRC-1, concentration 40): -6.063%
% inhibition T4 10' 80 (DRC-1, concentration 80): 5.54%
% inhibition T4 70' 2.5 (DRC-1, concentration 2.5): -11.7738%
% inhibition T4 70' 5 (DRC-1, concentration 5): -0.8035%
% inhibition T4 70' 10 (DRC-1, concentration 10): 5.827%
% inhibition T4 70' 20 (DRC-1): 2.436%
% inhibition T4 70' 40 (DRC-1, concentration 40): 2.364%
% inhibition T4 70' 80 (DRC-1, concentration 80): 3.646%
% inhibition T4 130' 2.5 (DRC-1, concentration 2.5): -10.2066%
% inhibition T4 130' 5 (DRC-1, concentration 5): -1.2832%
% inhibition T4 130' 10 (DRC-1, concentration 10): 4.495%
% inhibition T4 130' 20 (DRC-1): 3.3008%
% inhibition T4 130' 40 (DRC-1, concentration 40): 3.939%
% inhibition T4 130' 80 (DRC-1, concentration 80): 6.199%
% inhibition T4 10' 2.5 (DRC-2, concentration 2.5): 4.49%
% inhibition T4 10' 5 (DRC-2, concentration 5): 7%
% inhibition T4 10' 10 (DRC-2, concentration 10): 18%
% inhibition T4 10' 20 (DRC-2): 21%
% inhibition T4 10' 40 (DRC-2, concentration 40): 24%
% inhibition T4 10' 80 (DRC-2, concentration 80): 17%
% inhibition T4 40' 2.5 (DRC-2, concentration 2.5): 4%
% inhibition T4 40' 5 (DRC-2, concentration 5): 8%
% inhibition T4 40' 10 (DRC-2, concentration 10): 18%
% inhibition T4 40' 20 (DRC-2): 27%
% inhibition T4 40' 40 (DRC-2, concentration 40): 31%
% inhibition T4 40' 80 (DRC-2, concentration 80): 26%
% inhibition T4 90' 2.5 (DRC-2, concentration 2.5): 3%
% inhibition T4 90' 5 (DRC-2, concentration 5): 6.33%
% inhibition T4 90' 10 (DRC-2, concentration 10): 16%
% inhibition T4 90' 20 (DRC-2): 25%
% inhibition T4 90' 40 (DRC-2, concentration 40): 29%
% inhibition T4 90' 80 (DRC-2, concentration 80): 27%
% inhibition T4 180' 2.5 (DRC-2, concentration 2.5): -3.34%
% inhibition T4 180' 5 (DRC-2, concentration 5): 0.194%
% inhibition T4 180' 10 (DRC-2, concentration 10): 10%
% inhibition T4 180' 20 (DRC-2): 18%
% inhibition T4 180' 40 (DRC-2, concentration 40): 25%
% inhibition T4 180' 80 (DRC-2, concentration 80): 24%

O=C(CCc1csc(NC(=O)Nc2ccccc2)n1)Nc1nc2ccccc2s1 [KU0177354]
% inhibition T4 10' 2.5 (DRC-1, concentration 2.5): 0.07751%
% inhibition T4 10' 5 (DRC-1, concentration 5): 7.751%
% inhibition T4 10' 10 (DRC-1, concentration 10): 13.5789%
% inhibition T4 10' 20 (DRC-1): 14.0599%
% inhibition T4 10' 40 (DRC-1, concentration 40): 17.0084%
% inhibition T4 10' 80 (DRC-1, concentration 80): 35.4647%
% inhibition T4 70' 2.5 (DRC-1, concentration 2.5): 1.62%
% inhibition T4 70' 5 (DRC-1, concentration 5): 6.65%
% inhibition T4 70' 10 (DRC-1, concentration 10): 12.106%
% inhibition T4 70' 20 (DRC-1): 12.7058%
% inhibition T4 70' 40 (DRC-1, concentration 40): 16.9924%
% inhibition T4 70' 80 (DRC-1, concentration 80): 32.2475%
% inhibition T4 130' 2.5 (DRC-1, concentration 2.5): -0.4187%
% inhibition T4 130' 5 (DRC-1, concentration 5): 3.945%
% inhibition T4 130' 10 (DRC-1, concentration 10): 9.972%
% inhibition T4 130' 20 (DRC-1): 11.4415%
% inhibition T4 130' 40 (DRC-1, concentration 40): 15.4247%
% inhibition T4 130' 80 (DRC-1, concentration 80): 30.1254%
% inhibition T4 10' 2.5 (DRC-2, concentration 2.5): -8%
% inhibition T4 10' 5 (DRC-2, concentration 5): 2.7%
% inhibition T4 10' 10 (DRC-2, concentration 10): 9%
% inhibition T4 10' 20 (DRC-2): 6.49%
% inhibition T4 10' 40 (DRC-2, concentration 40): 5.57%
% inhibition T4 10' 80 (DRC-2, concentration 80): 11%
% inhibition T4 40' 2.5 (DRC-2, concentration 2.5): -8%
% inhibition T4 40' 5 (DRC-2, concentration 5): 2%
% inhibition T4 40' 10 (DRC-2, concentration 10): 9%
% inhibition T4 40' 20 (DRC-2): 5.69%
% inhibition T4 40' 40 (DRC-2, concentration 40): 5%
% inhibition T4 40' 80 (DRC-2, concentration 80): 14%
% inhibition T4 90' 2.5 (DRC-2, concentration 2.5): -7%
% inhibition T4 90' 5 (DRC-2, concentration 5): 3%
% inhibition T4 90' 10 (DRC-2, concentration 10): 8.56%
% inhibition T4 90' 20 (DRC-2): 5.54%
% inhibition T4 90' 40 (DRC-2, concentration 40): 5%
% inhibition T4 90' 80 (DRC-2, concentration 80): 17%
% inhibition T4 180' 2.5 (DRC-2, concentration 2.5): -11%
% inhibition T4 180' 5 (DRC-2, concentration 5): -1.4%
% inhibition T4 180' 10 (DRC-2, concentration 10): 3%
% inhibition T4 180' 20 (DRC-2): 1.84%
% inhibition T4 180' 40 (DRC-2, concentration 40): 2.2%
% inhibition T4 180' 80 (DRC-2, concentration 80): 18%
